Reference: ChEMBL document CHEMBL4804283, “Stk19 inhibitors for treatment of cancer” (2020)
The source made the active and inactive calls. No cut-off for these calls is given here.

Assays:
[1] = Toxicity in C57BL/6J mouse assessed as heart histology at 25 mg/kg, administered twice daily for 20 days by H and E staining method; type: organism-based; settings: in vivo, 480 h
[2] = Toxicity in C57BL/6J mouse assessed as spleen histology at 25 mg/kg, administered twice daily for 20 days by H and E staining method; type: organism-based; settings: in vivo, 480 h
[3] = system: hTERT; assay: Inhibition of colony formation in hTERT/p53DD/CDK4 (R24C) immortal melanocytes expressing STK19 D89N mutant at 3 uM relative to control; type: functional; settings: Homo sapiens
[4] = system: hTERT; assay: Antiproliferative activity against hTERT/p53DD/CDK4 (R24C) immortal melanocytes expressing STK19 D89N mutant at 3 uM relative to control; type: functional, tissue-based; settings: Homo sapiens
[5] = system: hTERT; assay: Antitumor activity against hTERT/p53DD/CDK4 (R24C) immortal melanocytes expressing STK19 D89N mutant xenografted in nude mouse assessed as reduction in tumor formation; type: functional; settings: Homo sapiens
[6] = system: SK-MEL-2; assay: Antitumor activity against human SK-MEL-2 cells xenografted in nude mouse assessed as inhibition of cancer cell proliferation at 50 mg/kg, administered for 21 days; type: functional, organism-based
[7] = system: T1, Inactive serine/threonine-protein kinase 19 (Homo sapiens), P49842 [D89N]; assay: Inhibition of STK19 in STK19-depleted human primary melanocytes expressing STK19 D89N mutant at 1-3 uM assessed as NRAS phosphorylation relative to control; type: tissue-based; settings: Melanocyte
T1 sequence (whole entry): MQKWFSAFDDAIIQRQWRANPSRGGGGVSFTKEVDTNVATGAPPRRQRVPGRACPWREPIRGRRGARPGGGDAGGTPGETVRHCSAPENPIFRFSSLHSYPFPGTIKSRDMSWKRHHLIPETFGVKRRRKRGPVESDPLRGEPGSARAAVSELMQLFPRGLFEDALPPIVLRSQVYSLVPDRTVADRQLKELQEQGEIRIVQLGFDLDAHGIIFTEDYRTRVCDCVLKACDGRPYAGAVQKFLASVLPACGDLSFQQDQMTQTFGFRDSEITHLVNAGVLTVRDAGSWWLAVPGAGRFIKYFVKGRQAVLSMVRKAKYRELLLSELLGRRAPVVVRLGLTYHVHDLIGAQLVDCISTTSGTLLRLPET

[8] = target: T2, Inactive serine/threonine-protein kinase 19 (Homo sapiens) (UniProt P49842); assay: Inhibition of STK19 in human WM2032 cells expressing NRAS Q61R and wild-type BRAF at 1-3 uM assessed as NRAS signaling relative to control; type: cell-based
T2 sequence (whole entry): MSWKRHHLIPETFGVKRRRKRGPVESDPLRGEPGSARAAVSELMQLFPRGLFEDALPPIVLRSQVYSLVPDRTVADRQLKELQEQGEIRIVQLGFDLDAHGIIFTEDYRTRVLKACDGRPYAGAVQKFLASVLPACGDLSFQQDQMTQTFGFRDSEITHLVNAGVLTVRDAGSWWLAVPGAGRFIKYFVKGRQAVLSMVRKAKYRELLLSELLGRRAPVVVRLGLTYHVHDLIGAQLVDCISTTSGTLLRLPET

[9] = target: T2, Inactive serine/threonine-protein kinase 19 (Homo sapiens); assay: Inhibition of STK19 in human A375 cells expressing wild-type NRAS and BRAF V600E mutant at 1-3 uM assessed as NRAS signaling relative to control; type: cell-based; settings: A-375
[10] = target: T2, Inactive serine/threonine-protein kinase 19 (Homo sapiens); assay: Inhibition of STK19 in human UACC62 cells expressing wild-type NRAS and BRAF V600E mutant at 1-3 uM assessed as NRAS signaling relative to control; type: cell-based; settings: UACC-62
[11] = target: T2, Inactive serine/threonine-protein kinase 19 (Homo sapiens); assay: Inhibition of STK19 in human UACC62 cells expressing wild-type NRAS and BRAF V600E mutant at 1-3 uM assessed as MEK-ERK signaling relative to control; type: cell-based; settings: UACC-62
[12] = target: T2, Inactive serine/threonine-protein kinase 19 (Homo sapiens); assay: Inhibition of STK19 in human A375 cells expressing wild-type NRAS and BRAF V600E mutant at 1-3 uM assessed as PI3K signaling relative to control; type: cell-based; settings: A-375
[13] = system: A-375; assay: Induction of apoptosis in human A375 cells expressing wild-type NRAS and BRAF V600E mutant at 1-3 uM relative to control; type: functional, cell-based
[14] = target: T2, Inactive serine/threonine-protein kinase 19 (Homo sapiens); assay: Inhibition of STK19 in human SK-MEL-2 cells expressing NRAS Q61R and wild-type BRAF at 100 nM assessed as NRAS phosphorylation relative to control; type: cell-based
[15] = target: T3, Histone-lysine N-methyltransferase EHMT2 (Homo sapiens) (UniProt Q96KQ7); assay: Inhibition of G9a in human WM2032 cells expressing NRAS Q61R and wild-type BRAF at 100-300 nM relative to control; type: cell-based
T3 sequence (whole entry): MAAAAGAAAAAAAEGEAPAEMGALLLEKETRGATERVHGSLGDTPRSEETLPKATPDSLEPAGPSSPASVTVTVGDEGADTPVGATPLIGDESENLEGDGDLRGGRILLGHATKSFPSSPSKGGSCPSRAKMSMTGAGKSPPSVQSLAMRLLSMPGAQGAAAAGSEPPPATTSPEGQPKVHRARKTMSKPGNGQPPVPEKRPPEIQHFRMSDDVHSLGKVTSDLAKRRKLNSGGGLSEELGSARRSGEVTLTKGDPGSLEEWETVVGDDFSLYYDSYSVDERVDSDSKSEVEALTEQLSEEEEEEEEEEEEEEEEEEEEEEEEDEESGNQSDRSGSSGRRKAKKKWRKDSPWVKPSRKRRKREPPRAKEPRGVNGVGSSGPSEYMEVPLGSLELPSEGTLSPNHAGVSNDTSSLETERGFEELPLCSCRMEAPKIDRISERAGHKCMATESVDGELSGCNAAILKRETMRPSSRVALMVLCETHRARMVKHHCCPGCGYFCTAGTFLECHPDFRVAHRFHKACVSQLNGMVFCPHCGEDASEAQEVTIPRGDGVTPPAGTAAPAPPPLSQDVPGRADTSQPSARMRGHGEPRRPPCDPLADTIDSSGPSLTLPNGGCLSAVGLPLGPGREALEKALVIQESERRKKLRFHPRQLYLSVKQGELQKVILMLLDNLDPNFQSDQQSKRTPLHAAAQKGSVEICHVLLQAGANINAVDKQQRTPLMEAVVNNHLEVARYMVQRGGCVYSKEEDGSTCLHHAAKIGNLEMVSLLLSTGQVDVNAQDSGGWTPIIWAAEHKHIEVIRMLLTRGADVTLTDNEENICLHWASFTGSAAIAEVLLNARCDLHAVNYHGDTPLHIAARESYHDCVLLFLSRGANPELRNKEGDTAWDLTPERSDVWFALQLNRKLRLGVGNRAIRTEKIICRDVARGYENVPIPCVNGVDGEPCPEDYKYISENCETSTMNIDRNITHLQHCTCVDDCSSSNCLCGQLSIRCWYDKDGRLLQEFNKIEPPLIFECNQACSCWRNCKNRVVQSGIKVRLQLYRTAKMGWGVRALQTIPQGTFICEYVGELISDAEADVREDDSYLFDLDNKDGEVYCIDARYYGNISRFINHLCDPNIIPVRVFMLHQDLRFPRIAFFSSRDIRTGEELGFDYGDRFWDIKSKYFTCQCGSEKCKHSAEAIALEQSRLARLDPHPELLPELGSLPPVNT

COc1cc2nc(NC3CC3)nc(NC3CCN(C(C)C)CC3)c2cc1OC.O=C(O)C(F)(F)F
Activity [1]: Non-Toxic
Activity [2]: Non-Toxic
Activity [3]: Active
Activity [4]: Active
Activity [5]: Active
Activity [6]: Active
inhibition [7]: Active
inhibition [8]: Active
inhibition [9]: inactive
inhibition [10]: inactive
inhibition [11]: inactive
inhibition [12]: inactive
Activity [13]: inactive
inhibition [14]: Active
inhibition [15]: inactive
